Data reported in US11226337B2, “Chemoproteomic profiling of protein electrophilic and oxidative post-translational modifications” (Zenagem, LLC, priority 2017, dated 2022).

Columns and labels:
[1] = molecular target: T1, ALDH2 Aldehyde dehydrogenase (P05091) (Homo sapiens, UniProt P05091); assay: SILAC RP-ABPP; format: cell-based; details: SILAC H/L, HEK293T
T1 construct: shared by both the endogenous and recombinant forms of these proteins; endogenous in cells; host or cells: HEK293T and MDA-MB-231
T1 sequence (P05091 18-517): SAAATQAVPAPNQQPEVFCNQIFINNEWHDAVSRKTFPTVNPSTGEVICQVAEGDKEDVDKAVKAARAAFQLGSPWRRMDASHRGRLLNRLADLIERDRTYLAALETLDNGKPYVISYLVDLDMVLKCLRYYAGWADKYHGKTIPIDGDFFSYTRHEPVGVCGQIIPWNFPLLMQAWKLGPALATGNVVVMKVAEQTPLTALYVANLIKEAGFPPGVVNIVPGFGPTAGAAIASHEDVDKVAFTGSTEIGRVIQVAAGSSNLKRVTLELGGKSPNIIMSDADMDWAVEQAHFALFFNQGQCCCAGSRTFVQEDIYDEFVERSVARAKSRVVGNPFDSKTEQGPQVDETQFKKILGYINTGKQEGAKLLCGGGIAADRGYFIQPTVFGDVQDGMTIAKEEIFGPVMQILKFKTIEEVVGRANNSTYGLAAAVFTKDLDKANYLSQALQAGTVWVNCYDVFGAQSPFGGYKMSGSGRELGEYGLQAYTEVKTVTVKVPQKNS
Method in brief: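 Heavy SILAC HEK293T or MDA-MB-231 cells were treated with hydrazine probe 1 (3 mM, 0.5 h); light cells received non-clickable hydrazine 3 at the same concentration (enrichment) or probe plus 10× competitor 3 (competition). Lysates were mixed, clicked to biotin-azide and analysed by LC-MS; values are median heavy:light peptide ratios averaged over ≥3 replicates.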

[2] = molecular target: T2, PLOD1 Procollagenlysine, 2oxoglutarate (Q02809) (Homo sapiens, UniProt Q02809); assay: SILAC RP-ABPP; format: cell-based; details: SILAC H/L, MDA-MB-231
T2 construct: In Situ Labelling of Cells with Hydrazine Probes for MS Experiments; endogenous in cells
T2 sequence (Q02809 19-727): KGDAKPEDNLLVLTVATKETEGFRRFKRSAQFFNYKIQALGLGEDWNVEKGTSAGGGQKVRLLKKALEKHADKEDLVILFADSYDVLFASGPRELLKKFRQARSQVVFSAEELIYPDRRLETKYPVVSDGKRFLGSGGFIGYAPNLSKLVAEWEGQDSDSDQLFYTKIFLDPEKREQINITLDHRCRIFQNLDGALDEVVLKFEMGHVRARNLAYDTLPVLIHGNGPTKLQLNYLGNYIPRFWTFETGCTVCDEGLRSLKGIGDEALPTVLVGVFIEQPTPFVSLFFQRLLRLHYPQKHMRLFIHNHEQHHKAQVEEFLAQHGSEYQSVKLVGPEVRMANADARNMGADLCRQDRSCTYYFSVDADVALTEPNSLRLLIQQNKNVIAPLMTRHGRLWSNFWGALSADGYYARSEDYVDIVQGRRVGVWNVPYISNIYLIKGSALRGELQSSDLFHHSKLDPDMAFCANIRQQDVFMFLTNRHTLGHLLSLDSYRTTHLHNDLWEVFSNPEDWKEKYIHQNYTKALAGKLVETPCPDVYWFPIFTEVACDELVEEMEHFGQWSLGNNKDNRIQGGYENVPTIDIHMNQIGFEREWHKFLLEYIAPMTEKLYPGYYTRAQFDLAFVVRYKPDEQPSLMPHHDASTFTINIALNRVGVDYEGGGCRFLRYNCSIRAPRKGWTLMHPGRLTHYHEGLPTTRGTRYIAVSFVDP

Row | enrichment ratioavg ([1]; probe 2 1 mM 0.5 h vs probe 4) | competition ratioavg ([1]; probe 2 vs probe 2+10x probe 4) | enrichment ratioavg ([2]; probe 2 1 mM 0.5 h vs probe 4) | competition ratioavg ([2]; probe 2 vs probe 2+10x probe 4) | Structure (SMILES) | enrichment ratioavg ([1]; probe 1 3 mM 0.5 h vs probe 3) | competition ratioavg ([1]; probe 1 vs probe 1+10x probe 3) | enrichment ratioavg ([2]; probe 1 3 mM 0.5 h vs probe 3) | competition ratioavg ([2]; probe 1 vs probe 1+10x probe 3)
1 | 11 | 6 | 8 | 3 | C#CCCNC(=O)c1ccc(NN)cc1.Cl [probe 2, N-(but-3-yn-1-yl)-4-hydrazinylbenzamide hydrochloride] | – | – | – | –
2 | – | – | – | – | C#CCNN.Cl [probe 1, prop-2-yn-1-ylhydrazine hydrochloride] | 8 | 2 | 6 | 3
